Data reported in US7244767B2 (priority 1998, dated 2007).
Values joined by “and” are separate entries in the source; they are usually repeats but may differ in a detail not shown here. Identical values can stand only once. Like-named read-outs stand apart in the source and are kept apart here.

Tests used:
cannabinoid receptor CB1 = target: T1, cannabinoid receptor CB1 (Mus musculus, UniProt P47746); assay: Binding to cannabinoid receptor CB1, displacement of [3H]SR141716A on N18TG2 cell membranes; conditions: 300 pM [3H]SR141716A, 90 min at 30° C., read-out: Ki, CB1 receptor, N18TG2 + cells, [3H]SR141716A ligand
T1 construct: endogenous in cells; host or cells: N18TG2 mouse neuroblastoma cells
Method: Mouse neuroblastoma cells N18TG2 which selectively express the cannabinoid receptor CB1 and rat leukaemia basophil cells RBL-2H3+ which selectively express the cannabinoid receptor CB2 were used. […] The binding tests were carried out with membranes of the said cells resuspended in 50 mM pH 7.0 Tris buffer; 2.5 mM mgCl2; 0.8 mM EDTA; 0.05% bovine serum albumin (BSA); 0.01% ethanol and in the presence of 100 μM phenylmethylsulphonyl fluoride (PMSF; sigma) using 300 pM of [^3H]SR141716A and [^3H]WIN55,212-2, respectively, as ligand.
(§1) The membranes were incubated for 90 min at 30° C., filtered on glass microfibre filters (GFC-Whatman) and the radioactivity was measured by liquid scintillation. The specific binding was calculated using either 10 μM SR141716A or 10 μM HU-210 (obtained from Prof. R. Mechoulam, Hebrew University Jerusalem). The Ki values were calculated using the Chang-Prusoff equation and expressed as concentration μM.

[1] = Solubility (physicochemical properties of the product)
cannabinoid receptor CB2 = target: T2, cannabinoid receptor CB2 (Rattus norvegicus, UniProt Q9QZN9); assay: Binding to cannabinoid receptor CB2, displacement of [3H]WIN55,212-2 on RBL-2H3 cell membranes; conditions: read-out: Ki, CB2 receptor, RBL-2H3 + cells, [3H]WIN55,212-2 ligand
T2 construct: endogenous in cells; host or cells: RBL-2H3 rat basophilic leukaemia cells
T2 sequence (Q9QZN9 1-360): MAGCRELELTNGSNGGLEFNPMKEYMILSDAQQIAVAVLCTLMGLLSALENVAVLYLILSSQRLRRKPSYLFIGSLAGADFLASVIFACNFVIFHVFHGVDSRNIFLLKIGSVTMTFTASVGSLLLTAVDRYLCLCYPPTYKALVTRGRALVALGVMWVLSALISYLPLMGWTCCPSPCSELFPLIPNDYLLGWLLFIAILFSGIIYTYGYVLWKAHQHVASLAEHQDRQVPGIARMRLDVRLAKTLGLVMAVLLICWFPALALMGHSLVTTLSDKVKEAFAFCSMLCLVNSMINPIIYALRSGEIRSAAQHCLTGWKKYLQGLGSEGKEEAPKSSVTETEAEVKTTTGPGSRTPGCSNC
Method: Mouse neuroblastoma cells N18TG2 which selectively express the cannabinoid receptor CB1 and rat leukaemia basophil cells RBL-2H3+ which selectively express the cannabinoid receptor CB2 were used. The cells were cultured as described previously [L. Faci et al. (1995) Proc. Natl. Acad. Sci. U.S.A., 92: 3376-3380; T. Bisogno et al. (1997) J. Biol. Chem., 272: 3315-3323]. [^3H]SR141716A (55 Ci/mmol) was supplied by Amersham; [^3H]WIN55, 212-2(43 Ci/mmol) was supplied by NEN. The binding tests were carried out with membranes of the said cells resuspended in 50 mM pH 7.0 Tris buffer; 2.5 mM mgCl2; 0.8 mM EDTA; 0.05% bovine serum albumin (BSA); 0.01% ethanol and in the presence of 100 μM phenylmethylsulphonyl fluoride (PMSF; sigma) using 300 pM of [^3H]SR141716A and [^3H]WIN55,212-2, respectively, as ligand.
as §1

receptor CB1 = target: T3, receptor CB1 (Mus musculus, UniProt P47746); assay: Effect on stimulation of cyclic AMP by forskolin in N18TG2 cells; type: cell-based; conditions: 1 μM forskolin, 10 min at 37° C.; read-out: IC50, c-AMP stimulated by forskolin, N18TG2 cells
T3 construct: endogenous in cells; host or cells: N18TG2 mouse neuroblastoma cells
Method: The tests were carried out with the aim of checking whether or not the binding of the N-AVAM molecules to the receptor CB1 had any functional significance. […] After incubation, the cells were extracted and the c-AMP levels were evaluated using a suitable kit from Amersham according to the manufacturer's procedure. The data are expressed as IC50, in μM.

MCF-7 cells = assay: Proliferation of human breast carcinoma cells, [3H]-thymidine incorporation, MCF-7; type: cell-based; conditions: MCF-7, [3H]-thymidine incorporation
Method: (§2) Human breast carcinoma cells MCF-7, EFM-19 and T-47D were used. The cells were cultured and the tests were carried out as described previously [materials and methods L. De Petrocellis et al. (1998) Proc. Natl. Acad. Sci. U.S.A., 95: 8375-8380]. The activity with respect to the proliferation of the tumour cells was evaluated on the basis of the incorporation of [^3H]-thimidine. The results are expressed as IC50 in μM.

EFM-19 cells [2] = assay: Proliferation of human breast carcinoma cells, [3H]-thymidine incorporation, EFM-19; type: cell-based; conditions: EFM-19, [3H]-thymidine incorporation
Method: as §2

T-47D cells = assay: Proliferation of human breast carcinoma cells, [3H]-thymidine incorporation, T-47D; type: cell-based
Method: as §2

DU-145 cells = assay: Proliferation of human prostate carcinoma cells DU145 with prolactin, cell count; type: cell-based
Method: Human prostate carcinoma cells DU145 were used. The cells were cultured as described previously [materials and methods T. Janssen et al. (1996) Cancer, 77: 144-149].
The cells were then incubated in 96-well plates with Eagle's Minimal Essential Medium (MEM) supplemented with 10% foetal calf serum free of endogenous steroids. After 24 hours, the medium was removed and replaced with a medium containing prolactin (PRL) (1 mIU/ml of medium). The layer of cells was trypsinized and the cells were counted by haemocytometry.
The results are expressed as IC50 in μM.

EFM-19 cells [3] = assay: Synergistic effect of PEA on antiproliferative activity in EFM-19 cells; type: cell-based, human; conditions: for Proliferative activity %: control = 100
Method: as §2
Human breast carcinoma cells EFM-19 were used. The test was carried out as indicated in Example C above.

[4] = tested on: carrageenan-mediated oedema; assay: Carrageenan-mediated oedema, paw volume; type: in vivo; conditions: 5 mg/kg, oral, carrageenan = 100
Method: The method described previously [materials and methods S. Mazzari et al. (1996) Europ. J. Pharmacol., 300: 227-236] were used for the purpose of evaluating the effects of N-AVAM molecules on the hyperreactivity of sensitive nerve cells.
The test compounds were administered orally suspended in physiological saline densified with CMC. The results are expressed as a percentage of variation in the volume of the paw relative to carrageenan.

[5] = tested on: carrageenan-mediated locomotor hyperalgesia; type: in vivo
[6] = membranes, 300 pM [3H]WIN55,212-2, 90 min at 30° C.
[7] = Homo sapiens, test compound alone 1.0 μM, control = 100, read-out: Proliferative activity %

T3 sequence (P47746 whole entry): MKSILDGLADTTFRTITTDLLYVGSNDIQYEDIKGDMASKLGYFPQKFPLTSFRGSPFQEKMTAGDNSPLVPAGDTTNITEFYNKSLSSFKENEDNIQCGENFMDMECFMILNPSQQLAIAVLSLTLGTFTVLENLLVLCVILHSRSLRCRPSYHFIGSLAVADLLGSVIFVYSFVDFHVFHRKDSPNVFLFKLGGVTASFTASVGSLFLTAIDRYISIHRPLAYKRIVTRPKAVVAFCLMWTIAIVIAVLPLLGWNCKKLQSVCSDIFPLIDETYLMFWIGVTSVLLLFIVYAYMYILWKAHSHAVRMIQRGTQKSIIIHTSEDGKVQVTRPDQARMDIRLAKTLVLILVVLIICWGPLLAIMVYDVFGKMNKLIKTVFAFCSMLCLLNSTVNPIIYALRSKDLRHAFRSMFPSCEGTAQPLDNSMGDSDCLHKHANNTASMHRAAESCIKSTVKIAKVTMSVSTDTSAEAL
T1 sequence (P47746 whole entry): as above

Row | SMILES | Ki (cannabinoid receptor CB1) [µM] | Solubility in water [1] | Ki (cannabinoid receptor CB2; [6]) [µM] | IC50 (receptor CB1) [µM] | IC50 (MCF-7 cells) [µM] | IC50 (EFM-19 cells [2]) [µM] | IC50 (T-47D cells) [µM] | Solubility in organic solvents, DMSO ([1]; in DMSO) [µg/mL] | Solubility in organic solvents, ethanol [1] [µg/mL] | other results
1 | COc1cc(CNC(=O)CCCC/C=C/C(C)C)ccc1O [Capsaicin, reference compound] | > 10 |  |  |  |  |  |  |  |  | 
2 | COc1cc(CNC(=O)CCCCCCCC(=O)NCc2ccc(O)c(OC)c2)ccc1O [Example 4, N,N′-bis(4-hydroxy-3-methoxybenzyl)-nonanediamide] | 1.2 ± 0.28 | sparingly soluble |  |  |  |  |  |  |  | solubility ([1]; organic solvent or mixture, in DMSO, read-out: Solubility in organic solvents, DMSO): > 10000 µg/mL
3 | CCCCCCCC/C=C\CCCCCCCC(=O)NCc1ccc(O)c(OC)c1 [Example 1, N-(4-hydroxy-3-methoxybenzyl)oleylamide] | 1.64 ± 0.36 | sparingly soluble | > 15 | 1.6 | 1.6 | 0.7 | 1.6 | > 10000 | > 10000 | IC50 (DU-145 cells; prolactin 1 mIU/ml): 0.2 to 0.3 µM; Proliferative activity % (EFM-19 cells [3]; test compound alone 1.0 μM): 60%; Percentage of variation in the volume of the paw relative to carrageenan ([4]; 60 min): 75%; Percentage of variation in the volume of the paw relative to carrageenan ([4]; 120 min): 70%; Percentage of variation in the volume of the paw relative to carrageenan ([4]; 180 min): 65%; Percentage of variation in the administered weight (hyperalgesia) ([5]; 5 mg/kg, oral, 0 min): 100%; Percentage of variation in the administered weight (hyperalgesia) ([5]; 5 mg/kg, oral, 60 min): 80%; Percentage of variation in the administered weight (hyperalgesia) ([5]; 5 mg/kg, oral, 120 min): 72%; Percentage of variation in the administered weight (hyperalgesia) ([5]; 5 mg/kg, oral, 180 min): 65%; Percentage of variation in the administered weight (hyperalgesia) ([5]; 5 mg/kg, oral, 240 min): 58%; Percentage of variation in the administered weight (hyperalgesia) ([5]; 5 mg/kg, oral, 300 min): 64%
4 | CCCCC/C=C\C/C=C\C/C=C\C/C=C\CCCC(=O)NCCO [Anandamide, reference compound] |  |  |  |  |  |  |  |  |  | IC50 (MCF-7 cells; Homo sapiens, MCF7): 0.5 µM; IC50 (EFM-19 cells [2]; Homo sapiens): 1.5 µM; IC50 (T-47D cells; Homo sapiens, T47D): 1.9 µM; IC50 (DU-145 cells; Homo sapiens, DU-145, prolactin 1 mIU/ml): 0.5 µM; activity at 1 µM (EFM-19 cells [3]; [7]): 84%
5 | CCCCC/C=C\C/C=C\C/C=C\C/C=C\CCCC(=O)NCc1ccc(O)c(OC)c1 [Example 3, N-(4-hydroxy-3-methoxybenzyl)-arachidonoylamide] | 1.5 ± 0.29 | sparingly soluble | > 15 | 1.3 | 0.4 | 0.5 | 0.3 | > 10000 | > 10000 | Proliferative activity % (EFM-19 cells [3]; test compound alone 0.5 μM): 70%; Proliferative activity % (EFM-19 cells [3]; test compound alone 1.0 μM): 43%
6 | CCCCCCCCCCCCCCCC(=O)NCCO [N-palmitoylethanolamine, reference compound] |  |  |  |  |  |  |  |  |  | Ki (cannabinoid receptor CB2): 0.001 ± 0.0006 µM; activity at 1 µM (EFM-19 cells [3]; [7]): 100%; activity at 2.5 µM (EFM-19 cells [3]; Homo sapiens, test compound alone 2.5 μM, control = 100, read-out: Proliferative activity %): 100%; activity at 5 µM (EFM-19 cells [3]; Homo sapiens, test compound alone 5.0 μM, control = 100, read-out: Proliferative activity %): 100%; activity at 10 µM (EFM-19 cells [3]; Homo sapiens, test compound alone 10 μM, control = 100, read-out: Proliferative activity %): 100%; Percentage of variation in the administered weight (hyperalgesia) ([5]; in vivo): 100% and 82% and 80% and 76% and 64% and 66%
7 | CCCCCCCCCCCCCCCC(=O)NCc1ccc(O)c(OC)c1 [Example 2, N-(4-hydroxy-3-methoxybenzyl)-palmitoylamide] | 1.75 ± 0.35 | sparingly soluble | > 15 | 1.8 | 2.1 | 1 | 0.8 | > 10000 | > 10000 | 
